The compounds below were run against T1, human orexin-2 receptor (Homo sapiens, UniProt O43614) (assay: Intracellular calcium (FLIPR) antagonist assay, CHO cells expressing human orexin-2 receptor, 3 nM orexin-A). Conditions: CHO, 1 uM compound, orexin-A 3 nM, read-out: OX2R % Inh. @ 1uM.
T1 construct: expressed in transfected cells; host or cells: CHO cells (G418 selection)
T1 sequence (O43614 1-444): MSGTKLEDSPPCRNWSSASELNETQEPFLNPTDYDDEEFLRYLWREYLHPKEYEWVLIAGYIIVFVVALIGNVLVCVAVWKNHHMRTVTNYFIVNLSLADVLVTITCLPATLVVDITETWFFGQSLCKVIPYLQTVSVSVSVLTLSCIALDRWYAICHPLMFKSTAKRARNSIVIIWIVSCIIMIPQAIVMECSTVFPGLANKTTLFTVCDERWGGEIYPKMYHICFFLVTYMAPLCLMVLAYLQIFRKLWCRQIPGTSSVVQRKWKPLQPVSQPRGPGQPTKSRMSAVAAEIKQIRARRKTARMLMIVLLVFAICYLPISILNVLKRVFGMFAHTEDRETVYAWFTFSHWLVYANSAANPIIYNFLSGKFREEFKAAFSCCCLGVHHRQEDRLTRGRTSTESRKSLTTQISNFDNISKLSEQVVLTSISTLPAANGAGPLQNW
Assay type: cell-based
Protocol: (§1) Antagonistic activities on both orexin receptors (i.e., to identify Orexin Receptor Antagonists) have been measured for each example compound using the in vitro assays (intracellular calcium measurements) as described herein. Other assays may also be used to identify Orexin Receptor Antagonists as would be understood by those of ordinary skill in the art. Chinese hamster ovary (CHO) cells expressing the human orexin-1 receptor and the human orexin-2 receptor, respectively, are grown in culture medium (Ham F-12 with L-Glutamine) containing 300 μg/mL G418, 100 U/mL penicillin, 100 μg/mL streptomycin and 10% heat inactivated fetal calf serum (FCS). The cells are seeded at 20′000 cells/well into 384-well black clear bottom sterile plates (Greiner). The seeded plates are incubated overnight at 37° C. in 5% CO2. Human orexin-A as an agonist is prepared as 1 mM stock solution in MeOH: water (1:1), diluted in HBSS containing 0.1% bovine serum albumin (BSA), NaHC03: 0.375 g/L and 20 mM HEPES for use in the assay at a final concentration of 3 nM.
(§2) Antagonists were prepared as 10 mM stock solution in DMSO, then diluted in 384-well plates using DMSO followed by a transfer of the dilutions into in HBSS containing 0.1% bovine serum albumin (BSA), NaHC03: 0.375 g/L and 20 mM HEPES. On the day of the assay, 50 μL of staining buffer (HBSS containing 1% FCS, 20 mM HEPES, NaHC03: 0.375 g/L, 5 mM probenecid (Sigma) and 3 μM of the fluorescent calcium indicator fluro-4 AM (1 mM stock solution in DMSO, containing 10% pluronic) is added to each well. The 384-well cell-plates are incubated for 50 min at 37° C. in 5% C02 followed by equilibration at RT for 30 min before measurement. Within the Fluorescent Imaging Plate Reader (FLIPR Tetra, Molecular Devices), potential Orexin Receptor Antagonists were added to the plate in a volume of 10 μl/well, incubated for 120 min and finally 10 μL/well of agonist is added. Fluorescence was measured for each well at 1 second intervals, and the height of each fluorescence peak compared to the height of the fluorescence peak induced by 3 nM orexin-A with vehicle in place of antagonist. The IC50 value (the concentration of compound needed to inhibit 50% of the agonistic response) was determined and normalized using the obtained IC50 value of an on-plate reference compound. Optimized conditions were achieved by adjustment of pipetting speed and cell splitting regime. The calculated IC50 values fluctuate depending on the daily cellular assay performance, as is known to those skilled in the art. In the case where IC50 values have been determined several times for the same compound, the geometric mean has been given.

Going from O=C(c1c(-c2ccccc2)nn2ccccc12)N1CCCN(c2nc3cc(Cl)ccc3o2)CC1 [Example 1] to O=C(c1c(-c2ccccc2)nc2ccccn12)N1CCCN(c2nc3cc(Cl)ccc3o2)CC1 [Example 3], the inhibition at 1 µM falls from 94.9% to 71.8%.

Compared with O=C(c1c(-c2ccccc2)nn2c1COCC2)N1CCCN(c2nc3cc(Cl)ccc3o2)CC1 [Example 2], C[C@@H]1CCN(c2nc3cc(Cl)ccc3o2)CCN1C(=O)c1c(-c2ccccc2)nn2c1COCC2 [Example 7] is higher in inhibition at 1 µM: 43.4% for the first, 54.5% for the second.

Compared with C[C@@H]1CCN(c2nc3cc(Cl)ccc3o2)CCN1C(=O)c1c(-c2ccccc2)nc2ccccn12 [Example 5], C[C@@H]1CCN(c2nc3cc(Cl)ccc3o2)CCN1C(=O)c1nn2ccccc2c1-c1ccccc1 [Example 8] is lower in inhibition at 1 µM: 94.5% for the first, 82.7% for the second.

First: C[C@@H]1CCN(c2nc3cc(Cl)ccc3o2)CCN1C(=O)c1c(-c2ccccc2)nc2n1CCCC2 [Example 6]
Second: C[C@@H]1CCN(c2nc3cc(Cl)ccc3o2)CCN1C(=O)c1nc2n(c1-c1ccccc1)CCCC2 [Example 9]
The inhibition at 1 µM of the first is higher: 33.4% for the first, 12.2% for the second.

Going from C[C@@H]1CCN(c2nc3cc(Cl)ccc3o2)CCN1C(=O)c1c(-c2ccccc2)nn2c1CCCC2 [Example 10] to C[C@@H]1CCN(c2ccc(F)cn2)CCN1C(=O)c1c(-c2ccccc2)nn2c1COCC2 [Example 25], the inhibition at 1 µM falls from 55.1% to 7.7%.

First: COc1ccc(N2CC[C@@H](C)N(C(=O)c3c(-c4ccccc4)nn4c3COCC4)CC2)nn1 [Example 11]
Second: COc1ccc(N2CC[C@@H](C)N(C(=O)c3c(-c4ccccc4)nn4c3COCC4)CC2)nc1 [Example 12]
The inhibition at 1 µM of the first is lower: 21.5% for the first, 25% for the second.

First: COc1ccc(N2CC[C@@H](C)N(C(=O)c3c(-c4ccccc4)nn4ccccc34)CC2)nn1 [Example 13]
Second: COc1ccc(N2CC[C@@H](C)N(C(=O)c3c(-c4ccccc4)nn4ccccc34)CC2)nc1 [Example 14]
The inhibition at 1 µM of the first is lower: 38.6% for the first, 57.6% for the second.

Compared with COc1ccc(N2CC[C@@H](C)N(C(=O)c3c(-c4ccccc4)nn4ccccc34)CC2)cn1 [Example 15], COc1ccc(N2CC[C@@H](C)N(C(=O)c3c(-c4ccccc4)nc4ccccn34)CC2)cn1 [Example 22] is lower in inhibition at 1 µM: 37.1% for the first, 28.3% for the second.

Going from COc1ccc(N2CC[C@@H](C)N(C(=O)c3c(-c4ccccc4)nn4c3COCC4)CC2)cn1 [Example 16] to C[C@@H]1CCN(c2ccc(C(F)(F)F)cn2)CCN1C(=O)c1c(-c2ccccc2)nn2c1COCC2 [Example 18], the inhibition at 1 µM rises from 3.3% to 35.5%.

Compared with C[C@@H]1CCN(c2ccc(C(F)(F)F)cn2)CCN1C(=O)c1c(-c2ccccc2)nn2ccccc12 [Example 17], C[C@@H]1CCN(c2ccc(F)cn2)CCN1C(=O)c1c(-c2ccccc2)nn2ccccc12 [Example 24] is lower in inhibition at 1 µM: 66.7% for the first, 46% for the second.

First: C[C@@H]1CCN(c2ccc(C(F)(F)F)cn2)CCN1C(=O)c1c(-c2ccccc2)nc2ccccn12 [Example 19]
Second: C[C@@H]1CCN(c2ccc(F)cn2)CCN1C(=O)c1c(-c2ccccc2)nc2ccccn12 [Example 23]
The inhibition at 1 µM of the first is higher: 48.2% for the first, 32.7% for the second.

Going from COc1ccc(N2CC[C@@H](C)N(C(=O)c3c(-c4ccccc4)nc4ccccn34)CC2)nc1 [Example 20] to COc1ccc(N2CC[C@@H](C)N(C(=O)c3c(-c4ccccc4)nc4ccccn34)CC2)nn1 [Example 21], the inhibition at 1 µM falls from 32.2% to 23.7%.

Each compound was assayed against T2, human orexin-1 receptor (Homo sapiens, UniProt O43613) (assay: Intracellular calcium (FLIPR) antagonist assay, CHO cells expressing human orexin-1 receptor, 3 nM orexin-A). Conditions: CHO, 1 uM compound, orexin-A 3 nM, read-out: OXIR % Inh. @ 1 uM.
T2 construct: expressed in transfected cells; host or cells: CHO cells (G418 selection)
T2 sequence (O43613 1-425): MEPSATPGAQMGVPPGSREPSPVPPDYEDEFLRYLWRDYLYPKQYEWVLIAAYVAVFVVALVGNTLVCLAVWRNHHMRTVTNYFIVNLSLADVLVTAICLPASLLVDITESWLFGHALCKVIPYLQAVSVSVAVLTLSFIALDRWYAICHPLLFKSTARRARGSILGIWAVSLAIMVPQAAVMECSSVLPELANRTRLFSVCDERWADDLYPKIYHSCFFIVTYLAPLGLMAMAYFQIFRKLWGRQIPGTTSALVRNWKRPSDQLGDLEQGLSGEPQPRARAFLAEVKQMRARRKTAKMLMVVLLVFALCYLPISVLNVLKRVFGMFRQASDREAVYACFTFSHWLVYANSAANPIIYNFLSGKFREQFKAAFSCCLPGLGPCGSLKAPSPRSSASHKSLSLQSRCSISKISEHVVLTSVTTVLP
Assay type: cell-based
Protocol: as §1, §2

Compared with O=C(c1c(-c2ccccc2)nn2ccccc12)N1CCCN(c2nc3cc(Cl)ccc3o2)CC1 [Example 1], O=C(c1c(-c2ccccc2)nc2ccccn12)N1CCCN(c2nc3cc(Cl)ccc3o2)CC1 [Example 3] is lower in inhibition at 1 µM: 98.7% for the first, 94% for the second.

Compared with O=C(c1c(-c2ccccc2)nn2c1COCC2)N1CCCN(c2nc3cc(Cl)ccc3o2)CC1 [Example 2], C[C@@H]1CCN(c2nc3cc(Cl)ccc3o2)CCN1C(=O)c1c(-c2ccccc2)nn2c1COCC2 [Example 7] is higher in inhibition at 1 µM: 64.2% for the first, 91% for the second.

Going from C[C@@H]1CCN(c2nc3cc(Cl)ccc3o2)CCN1C(=O)c1c(-c2ccccc2)nc2ccccn12 [Example 5] to C[C@@H]1CCN(c2nc3cc(Cl)ccc3o2)CCN1C(=O)c1nn2ccccc2c1-c1ccccc1 [Example 8], the inhibition at 1 µM falls from 98.5% to 98%.

Going from C[C@@H]1CCN(c2nc3cc(Cl)ccc3o2)CCN1C(=O)c1c(-c2ccccc2)nc2n1CCCC2 [Example 6] to C[C@@H]1CCN(c2nc3cc(Cl)ccc3o2)CCN1C(=O)c1nc2n(c1-c1ccccc1)CCCC2 [Example 9], the inhibition at 1 µM falls from 62.5% to 49.6%.

Going from C[C@@H]1CCN(c2nc3cc(Cl)ccc3o2)CCN1C(=O)c1c(-c2ccccc2)nn2c1CCCC2 [Example 10] to C[C@@H]1CCN(c2ccc(F)cn2)CCN1C(=O)c1c(-c2ccccc2)nn2c1COCC2 [Example 25], the inhibition at 1 µM falls from 85.9% to 11.6%.

Going from COc1ccc(N2CC[C@@H](C)N(C(=O)c3c(-c4ccccc4)nn4c3COCC4)CC2)nn1 [Example 11] to COc1ccc(N2CC[C@@H](C)N(C(=O)c3c(-c4ccccc4)nn4c3COCC4)CC2)nc1 [Example 12], the inhibition at 1 µM rises from 12.2% to 14.7%.

First: COc1ccc(N2CC[C@@H](C)N(C(=O)c3c(-c4ccccc4)nn4ccccc34)CC2)nn1 [Example 13]
Second: COc1ccc(N2CC[C@@H](C)N(C(=O)c3c(-c4ccccc4)nn4ccccc34)CC2)nc1 [Example 14]
The inhibition at 1 µM of the first is lower: 45.1% for the first, 91.6% for the second.

First: COc1ccc(N2CC[C@@H](C)N(C(=O)c3c(-c4ccccc4)nn4ccccc34)CC2)cn1 [Example 15]
Second: COc1ccc(N2CC[C@@H](C)N(C(=O)c3c(-c4ccccc4)nc4ccccn34)CC2)cn1 [Example 22]
The inhibition at 1 µM of the first is higher: 38.7% for the first, 15% for the second.

First: COc1ccc(N2CC[C@@H](C)N(C(=O)c3c(-c4ccccc4)nn4c3COCC4)CC2)cn1 [Example 16]
Second: C[C@@H]1CCN(c2ccc(C(F)(F)F)cn2)CCN1C(=O)c1c(-c2ccccc2)nn2c1COCC2 [Example 18]
The inhibition at 1 µM of the first is lower: -21.1% for the first, 82.5% for the second.

Compared with C[C@@H]1CCN(c2ccc(C(F)(F)F)cn2)CCN1C(=O)c1c(-c2ccccc2)nn2ccccc12 [Example 17], C[C@@H]1CCN(c2ccc(F)cn2)CCN1C(=O)c1c(-c2ccccc2)nn2ccccc12 [Example 24] is lower in inhibition at 1 µM: 96.3% for the first, 44.2% for the second.

Going from C[C@@H]1CCN(c2ccc(C(F)(F)F)cn2)CCN1C(=O)c1c(-c2ccccc2)nc2ccccn12 [Example 19] to C[C@@H]1CCN(c2ccc(F)cn2)CCN1C(=O)c1c(-c2ccccc2)nc2ccccn12 [Example 23], the inhibition at 1 µM falls from 94.5% to 18.6%.

Going from COc1ccc(N2CC[C@@H](C)N(C(=O)c3c(-c4ccccc4)nc4ccccn34)CC2)nc1 [Example 20] to COc1ccc(N2CC[C@@H](C)N(C(=O)c3c(-c4ccccc4)nc4ccccn34)CC2)nn1 [Example 21], the inhibition at 1 µM falls from 62.1% to 20.9%.

From US20260256807A1, “SUBSTITUTED PYRAZOLES AND IMIDAZOLES AS OREXIN RECEPTOR ANTAGONISTS COMPOSITION, METHODS FOR TREATING NEUROLOGICAL AND PSYCHOLOGICAL DISORDERS” (HAGER BIOSCIENCES, LLC, priority 2022, published 2026)
